Test results published in patent US6506772B1, “Substituted [1,2,4]triazolo[1,5a]pyridine derivatives with activity as adenosine receptor ligands” (Hoffmann-La Roche Inc., priority 2000, dated 2003).
Where two headings read alike, the source gives them in different places.

Assays:
[1] = target: T1, human adenosine A2A receptor (Homo sapiens, UniProt P29274); assay: Human adenosine A2A receptor [3H]-SCH-58261 binding assay
T1 construct: expressed in transfected cells; host or cells: CHO cells, Semliki Forest virus expression system; membrane preparation

HA1 adenosine receptor = target: T2, HA1 adenosine receptor (Homo sapiens, UniProt P30542); assay: Human adenosine A1 receptor affinity (Ki hA1); format: binding
T2 sequence (P30542 1-326): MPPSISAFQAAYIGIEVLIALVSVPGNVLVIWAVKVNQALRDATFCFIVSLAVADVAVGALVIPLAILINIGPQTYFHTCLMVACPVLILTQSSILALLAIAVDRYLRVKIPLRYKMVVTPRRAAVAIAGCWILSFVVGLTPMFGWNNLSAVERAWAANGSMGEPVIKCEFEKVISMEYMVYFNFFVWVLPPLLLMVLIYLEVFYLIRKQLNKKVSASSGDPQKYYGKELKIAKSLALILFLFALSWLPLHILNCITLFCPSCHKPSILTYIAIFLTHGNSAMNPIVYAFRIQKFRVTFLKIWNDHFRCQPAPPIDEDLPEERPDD

[2] = affinity to human adenosine A2A receptor, read-out: Ki HA2A
[3] = calculated ratio of the affinity to the HA1 receptor to the HA2a receptor
[4] = affinity to human adenosine A1 receptor
[5] = recombinant human A2A in CHO cell membranes, [3H]-SCH-58261, Cheng-Prussoff, read-out: Ki hA2A

T1 sequence (P29274 whole entry): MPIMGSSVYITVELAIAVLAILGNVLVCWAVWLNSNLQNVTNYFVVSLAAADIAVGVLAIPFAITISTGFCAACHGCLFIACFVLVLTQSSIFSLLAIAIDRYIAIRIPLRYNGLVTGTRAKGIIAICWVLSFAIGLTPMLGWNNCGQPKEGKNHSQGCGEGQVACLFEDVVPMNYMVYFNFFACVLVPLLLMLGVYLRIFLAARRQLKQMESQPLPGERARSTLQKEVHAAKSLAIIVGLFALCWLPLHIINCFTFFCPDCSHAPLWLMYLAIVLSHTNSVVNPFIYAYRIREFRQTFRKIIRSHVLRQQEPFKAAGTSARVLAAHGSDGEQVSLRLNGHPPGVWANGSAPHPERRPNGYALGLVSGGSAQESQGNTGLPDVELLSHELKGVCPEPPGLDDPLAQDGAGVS

Structure (SMILES)	Ki [1, 2] [nM]	selectivity (A1/A2a) [1, 3]	Ki (HA1 adenosine receptor; [4]) [nM]	selectivity (A1/A2a) ([1]; ratio KiHA1 divided by KiHA2A)	Ki [1, 5] [nM]	Ki (HA1 adenosine receptor) [nM]
Nc1cc(C(=O)N(Cc2ccccc2)Cc2ccccc2)cc2nc(-c3nccs3)nn12 [Example 327, 5-Amino-2-thiazol-2-yl-[1,2,4]triazolo[1,5-a]pyridine-7-carboxylic acid dibenzylamide]	5.8	22.2	128	–	–	–
Cc1ccsc1-c1nc2cc(C(=O)NC3CCc4ccccc43)cc(N)n2n1 (stereo not drawn) [Example 187, 5-Amino-2-(3-methyl-thiophen-2-yl)-[1,2,4]triazolo[1,5-a]pyridine-7-carboxylic acid indan-1-ylamide]	224	1.0	228	–	–	–
CCN(CC)C(=O)c1cc(N)n2nc(-c3ccccc3O)nc2c1 [Example 101, 5-Amino-2-(2-hydroxy-phenyl)-[1,2,4]triazolo[1,5-a]pyridine-7-carboxylic acid diethylamide]	33.3	21.1	701	–	–	–
Cc1ccc(-c2nc3cc(C(=O)NCc4ccc(Cl)cc4)cc(N)n3n2)o1 [Example 212, 5-Amino-2-(5-methyl-furan-2-yl)-[1,2,4]triazolo[1,5-a]pyridine-7-carboxylic acid 4-chloro-benzylamide]	190	3.3	634	–	–	–
CCN(C(=O)c1cc(N)n2nc(-c3ccc(Cl)o3)nc2c1)C(C)C [Example 255, 5-Amino-2-(5-chloro-furan-2-yl)-[1,2,4]triazolo[1,5-a]pyridine-7-carboxylic acid ethyl-isopropyl-amide]	3.2	28.9	92.5	–	–	–
CCN(C(=O)c1cc(N)n2nc(-c3ccc(Br)o3)nc2c1)C(C)C [Example 272, 5-Amino-2-(5-bromo-furan-2-yl)-[1,2,4]triazolo[1,5-a]pyridine-7-carboxylic acid ethyl-isopropyl-amide]	2.2	36.8	81	–	–	–
Cn1cccc1-c1nc2cc(C(=O)NCc3ccccc3)cc(N)n2n1 [Example 180, 5-Amino-2-(1-methyl-1H-pyrrol-2-yl)-[1,2,4]triazolo[1,5-a]pyridine-7-carboxylic acid benzylamide]	112	2.7	307	–	–	–
CCN(Cc1ccccc1)C(=O)c1cc(N)n2nc(-c3nccs3)nc2c1 [Example 323, 5-Amino-2-thiazol-2-yl-[1,2,4]triazolo[1,5-a]pyridine-7-carboxylic acid benzyl-ethyl-amide]	25.2	13.6	342	–	–	–
CCN(CC)C(=O)c1cc(N)n2nc(-c3ccc(Cl)o3)nc2c1 [Example 233, 5-Amino-2-(5-chloro-furan-2-yl)-[1,2,4]triazolo[1,5-a]pyridine-7-carboxylic acid diethylamide]	7.2	38.7	280	–	–	–
CN(Cc1ccccc1)C(=O)c1cc(N)n2nc(-c3ccccc3)nc2c1 [Example 152, 5-Amino-2-phenyl-[1,2,4]triazolo[1,5-a]pyridine-7-carboxylic acid benzyl-methyl-amide]	32.8	11.2	367	–	–	–
Nc1cc(C(=O)N2CCc3ccccc3C2)cc2nc(-c3ccc(Br)o3)nn12 [Example 347, [5-Amino-2-(5-bromo-furan-2-yl)-[1,2,4]triazolo[1,5-a]pyridin-7-yl]-(3,4-dihydro-1H-isoquinolin-2-yl)-methanone]	13.3	17.7	236	–	–	–
CCCCN(CC)C(=O)c1cc(N)n2nc(-c3nccs3)nc2c1 [Example 291, 5-Amino-2-thiazol-2-yl-[1,2,4]triazolo[1,5-a]pyridine-7-carboxylic acid butyl-ethyl-amide]	89.5	17.2	1540	–	–	–
CCN(C(=O)c1cc(N)n2nc(-c3ccccn3)nc2c1)C1CCCCC1 [Example 31, 5-Amino-2-pyridin-2-yl-[1,2,4]triazolo[1,5-a]pyridine-7-carboxylic acid cyclohexyl-ethyl-amide]	49.6	22.7	1130	–	–	–

Next, values leading:

Ki [1, 2] [nM]	selectivity (A1/A2a) [1, 3]	Ki (HA1 adenosine receptor; [4]) [nM]	selectivity (A1/A2a) ([1]; ratio KiHA1 divided by KiHA2A)	Ki [1, 5] [nM]	Ki (HA1 adenosine receptor) [nM]	Structure (SMILES)
4.9	46.0	223	–	–	–	CCCCNC(=O)c1cc(N)n2nc(-c3ccco3)nc2c1 [Example 104, 5-Amino-2-furan-2-yl-[1,2,4]triazolo[1,5-a]pyridine-7-carboxylic acid butylamide]
295	5.2	1540	–	–	–	COc1ccc(CNC(=O)c2cc(N)n3nc(-c4ccc(C)o4)nc3c2)cc1 [Example 215, 5-Amino-2-(5-methyl-furan-2-yl)-[1,2,4]triazolo[1,5-a]pyridine-7-carboxylic acid 4-methoxy-benzylamide]
3.1	79.4	246	–	–	–	C#CCN(C)C(=O)c1cc(N)n2nc(-c3ccc(Br)o3)nc2c1 [Example 266, 5-Amino-2-(5-bromo-furan-2-yl)-[1,2,4]triazolo[1,5-a]pyridine-7-carboxylic acid methyl-prop-2-ynyl-amide]
26.6	0.6	15.8	–	–	–	COc1ccc(-c2nc3cc(C(=O)N(CCc4ccccc4)Cc4ccccc4)cc(N)n3n2)s1 [Example 75, 5-Amino-2-(5-methoxy-thiophen-2-yl)-[1,2,4]triazolo[1,5-a]pyridine-7-carboxylic acid benzyl-phenethyl-amide]
119	1.0	123	–	–	–	Nc1cc(C(=O)NCCc2ccccc2Cl)cc2nc(-c3ccccn3)nn12 [Example 50, 5-Amino-2-pyridin-2-yl-[1,2,4]triazolo[1,5-a]pyridine-7-carboxylic acid [2-(2-chloro-phenyl)-ethyl]-amide]
–	–	–	48.7	3.5	170	CCN(CCOC)C(=O)c1cc(N)n2nc(-c3ccc(Br)o3)nc2c1 [Example 396, 5-Amino-2-(5-bromo-furan-2-yl)-[1,2,4]triazolo[1,5-a]pyridine-7-carboxylic acid ethyl-(2-methoxy-ethyl)-amide]
54.6	4.9	270	–	–	–	Cn1cccc1-c1nc2cc(C(=O)NCc3ccccc3Br)cc(N)n2n1 [Example 182, 5-Amino-2-(1-methyl-1H-pyrrol-2-yl)-[1,2,4]triazolo[1,5-a]pyridine-7-carboxylic acid 2-bromo-benzylamide]
–	–	–	27.2	88	2400	CN(C)C(=O)C1CCCN1C(=O)c1cc(N)n2nc(-c3ccccn3)nc2c1 (stereo not drawn) [Example 432, 1-(5-Amino-2-pyridin-2-yl-[1,2,4]triazolo[1,5-a]pyridine-7-carbonyl)-pyrrolidine-2-carboxylic acid dimethyl amide]
18.1	42.5	770	–	–	–	Nc1cc(C(=O)N2CCCC2)cc2nc(-c3ccc(Cl)o3)nn12 [Example 235, [5-Amino-2-(5-chloro-furan-2-yl)-[1,2,4]triazolo[1,5-a]pyridin-7-yl]-pyrrolidin-1-yl-methanone]
14.6	7.6	111	–	–	–	COc1ccccc1CNC(=O)c1cc(N)n2nc(-c3ccc(C)o3)nc2c1 [Example 214, 5-Amino-2-(5-methyl-furan-2-yl)-[1,2,4]triazolo[1,5-a]pyridine-7-carboxylic acid 2-methoxy-benzylamide]
9.8	47.2	463	–	–	–	CN(CCc1ccccn1)C(=O)c1cc(N)n2nc(-c3ccc(Br)o3)nc2c1 [Example 308, 5-Amino-2-(5-bromo-furan-2-yl)-[1,2,4]triazolo[1,5-a]pyridine-7-carboxylic acid methyl-(2-pyridin-2-yl-ethyl)-amide]
2.6	29.7	77.3	–	–	–	CN(C(=O)c1cc(N)n2nc(-c3ccc(Br)o3)nc2c1)C1CCCCC1 [Example 340, 5-Amino-2-(5-bromo-furan-2-yl)-[1,2,4]triazolo[1,5-a]pyridine-7-carboxylic acid cyclohexyl-methyl-amide]
144	1.7	239	–	–	–	Nc1cc(C(=O)N(CCc2ccccc2)Cc2ccccc2)cc2nc(-c3cccnc3)nn12 [Example 90, 5-Amino-2-pyridin-3-yl-[1,2,4]triazolo[1,5-a]pyridine-7-carboxylic acid benzyl-phenethyl-amide]
22	1.7	37.9	–	–	–	Cc1ccc(-c2nc3cc(C(=O)NCc4ccccc4Br)cc(N)n3n2)s1 [Example 200, 5-Amino-2-(5-methyl-thiophen-2-yl)-[1,2,4]triazolo[1,5-a]pyridine-7-carboxylic acid 2-bromo-benzylamide]
52.2	8.3	432	–	–	–	Cc1ccc(-c2nc3cc(C(=O)N4CCCC4)cc(N)n3n2)s1 [Example 196, [5-Amino-2-(5-methyl-thiophen-2-yl)-[1,2,4]triazolo[1,5-a]pyridin-7-yl]-pyrrolidin-1-yl-methanone]
77.4	35.4	2740	–	–	–	CCN(CC)C(=O)c1cc(N)n2nc(-c3nccs3)nc2c1 [Example 120, 5-Amino-2-thiazol-2-yl-[1,2,4]triazolo[1,5-a]pyridine-7-carboxylic acid diethylamide]
